In ChEMBL document CHEMBL3425423, “Hydroxy tricyclic 1,5-naphthyridinone oxabicyclooctane-linked novel bacterial topoisomerase inhibitors as broad-spectrum antibacterial agents-SAR of RHS moiety (Part-3)” (Bioorg Med Chem Lett, 2015):
≈ marks a conversion by molar mass, not a printed value.

Assays:
[1] = test system: Escherichia coli; experiment: Antibacterial activity against Escherichia coli ATCC 25922; assay type: functional; conditions: Escherichia coli, ATCC 25922; read-out: MIC
[2] = test system: Moraxella catarrhalis; experiment: Antibacterial activity against Moraxella catarrhalis ATCC 25238; assay type: functional; conditions: Moraxella catarrhalis, ATCC 25238; read-out: MIC
[3] = test system: Enterococcus faecium; experiment: Antibacterial activity against VanA-type vancomycin-resistant Enterococcus faecium A2373; assay type: functional; conditions: Enterococcus faecium, A2373; read-out: MIC
[4] = test system: Enterococcus faecalis; experiment: Antibacterial activity against Enterococcus faecalis ATCC 29212; assay type: functional; conditions: Enterococcus faecalis, ATCC 29212; read-out: MIC
[5] = test system: Streptococcus pneumoniae; experiment: Antibacterial activity against Streptococcus pneumoniae IID554; assay type: functional; conditions: Streptococcus pneumoniae, IID554; read-out: MIC
[6] = test system: Haemophilus influenzae; experiment: Antibacterial activity against Haemophilus influenzae ATCC 49247; assay type: functional; conditions: Haemophilus influenzae, ATCC 49247; read-out: MIC
[7] = test system: Acinetobacter baumannii; experiment: Antibacterial activity against Acinetobacter baumannii IID876; assay type: functional; conditions: Acinetobacter baumannii, IID876; read-out: MIC
[8] = test system: Staphylococcus aureus; experiment: Antibacterial activity against Staphylococcus aureus Smith; assay type: functional; conditions: Staphylococcus aureus, Smith; read-out: MIC
[9] = test system: Pseudomonas aeruginosa; experiment: Antibacterial activity against Pseudomonas aeruginosa PAO1; assay type: functional; conditions: Pseudomonas aeruginosa, PAO1; read-out: MIC
[10] = test system: Staphylococcus aureus; experiment: Ratio of MIC for quinolone-resistant Staphylococcus aureus MS5935 to MIC for quinolone-sensitive Staphylococcus aureus; assay type: functional
[11] = target: Voltage-gated inwardly rectifying potassium channel KCNH2 (Homo sapiens, UniProt Q12809); experiment: Inhibition of human ERG expressed in CHO cells measured over 5 mins by patch clamp assay
Voltage-gated inwardly rectifying potassium channel KCNH2, sequence (Q12809 whole entry): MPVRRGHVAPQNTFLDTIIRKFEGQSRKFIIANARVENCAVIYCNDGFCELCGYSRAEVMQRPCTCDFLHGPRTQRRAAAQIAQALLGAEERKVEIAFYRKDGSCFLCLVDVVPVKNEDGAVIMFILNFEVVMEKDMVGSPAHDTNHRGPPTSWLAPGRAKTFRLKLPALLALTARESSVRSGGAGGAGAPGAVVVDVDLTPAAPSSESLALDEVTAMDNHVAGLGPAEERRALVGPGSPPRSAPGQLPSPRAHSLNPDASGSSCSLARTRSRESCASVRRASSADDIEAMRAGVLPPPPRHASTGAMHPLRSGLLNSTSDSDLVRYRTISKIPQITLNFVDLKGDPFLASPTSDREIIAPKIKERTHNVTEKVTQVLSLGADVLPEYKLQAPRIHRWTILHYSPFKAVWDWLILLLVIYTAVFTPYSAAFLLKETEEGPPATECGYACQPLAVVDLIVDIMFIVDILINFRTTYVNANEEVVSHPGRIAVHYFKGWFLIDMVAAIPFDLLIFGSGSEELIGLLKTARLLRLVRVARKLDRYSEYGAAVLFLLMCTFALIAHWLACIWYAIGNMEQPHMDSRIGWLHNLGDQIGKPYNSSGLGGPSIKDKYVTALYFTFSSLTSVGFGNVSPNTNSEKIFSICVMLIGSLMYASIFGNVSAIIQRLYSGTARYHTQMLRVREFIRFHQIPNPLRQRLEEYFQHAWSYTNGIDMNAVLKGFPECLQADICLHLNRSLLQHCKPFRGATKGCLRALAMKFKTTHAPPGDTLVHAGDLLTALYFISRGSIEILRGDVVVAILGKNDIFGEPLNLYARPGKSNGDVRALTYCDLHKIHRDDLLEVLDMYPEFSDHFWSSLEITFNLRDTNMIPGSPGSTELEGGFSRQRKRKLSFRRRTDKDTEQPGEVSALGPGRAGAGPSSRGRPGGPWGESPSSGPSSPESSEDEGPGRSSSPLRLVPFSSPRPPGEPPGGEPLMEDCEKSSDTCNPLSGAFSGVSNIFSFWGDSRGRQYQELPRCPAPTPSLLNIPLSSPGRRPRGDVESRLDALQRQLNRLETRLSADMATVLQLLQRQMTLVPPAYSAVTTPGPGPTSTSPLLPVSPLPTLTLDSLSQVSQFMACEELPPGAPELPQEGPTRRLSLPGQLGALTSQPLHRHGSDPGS

SMILES | MIC [1] [µg/mL] | MIC [2] [µg/mL] | MIC [3] [µg/mL] | MIC [4] [µg/mL] | MIC [5] [µg/mL] | MIC [6] [µg/mL] | MIC [7] [µg/mL] | MIC [8] [µg/mL] | MIC [9] [µg/mL] | Ratio [10] | IC50 [11] [µM]
O=C1COc2ccc(CNC34CCC(C[C@]5(O)Cn6c(=O)ccc7ncc(F)c5c76)(CC3)OC4)nc2N1 | 4 (≈ 7.88 µM) | 0.25 (≈ 0.493 µM) | 8 (≈ 15.8 µM) | 4 (≈ 7.88 µM) | 0.25 (≈ 0.493 µM) | 1 (≈ 1.97 µM) | 2 (≈ 3.94 µM) | 0.25 (≈ 0.493 µM) | 16 (≈ 31.5 µM) | – | –
O=c1ccc2ncc(F)c3c2n1C[C@@]3(O)CC12CCC(NCc3cc4c(cc3Cl)OCCO4)(CC1)CO2 | 32 (≈ 60.6 µM) | 0.5 (≈ 0.947 µM) | 8 (≈ 15.2 µM) | 4 (≈ 7.58 µM) | 0.5 (≈ 0.947 µM) | 32 (≈ 60.6 µM) | 8 (≈ 15.2 µM) | 0.25 (≈ 0.474 µM) | 32 (≈ 60.6 µM) | – | –
Cc1cc2c(nc1CNC13CCC(C[C@]4(O)Cn5c(=O)ccc6ncc(F)c4c65)(CC1)OC3)NC(=O)CO2 | 8 (≈ 15.3 µM) | 0.5 (≈ 0.959 µM) | 32 (≈ 61.4 µM) | 8 (≈ 15.3 µM) | 4 (≈ 7.67 µM) | 4 (≈ 7.67 µM) | 4 (≈ 7.67 µM) | 1.5 (≈ 2.88 µM) | 32 (≈ 61.4 µM) | – | –
Nc1cc2c(nc1CNC13CCC(C[C@]4(O)Cn5c(=O)ccc6ncc(F)c4c65)(CC1)OC3)NC(=O)CO2 | 32 (≈ 61.2 µM) | 4 (≈ 7.65 µM) | 32 (≈ 61.2 µM) | 32 (≈ 61.2 µM) | 32 (≈ 61.2 µM) | 32 (≈ 61.2 µM) | 32 (≈ 61.2 µM) | 8 (≈ 15.3 µM) | 32 (≈ 61.2 µM) | <4 | –
O=C1COc2cc(O)c(CNC34CCC(C[C@]5(O)Cn6c(=O)ccc7ncc(F)c5c76)(CC3)OC4)nc2N1 | 16 (≈ 30.6 µM) | 1 (≈ 1.91 µM) | 16 (≈ 30.6 µM) | 8 (≈ 15.3 µM) | 2 (≈ 3.82 µM) | 4 (≈ 7.64 µM) | 32 (≈ 61.1 µM) | 2 (≈ 3.82 µM) | 16 (≈ 30.6 µM) | <4 | –
O=C1COc2cc(OC(=O)c3ccccc3)c(CNC34CCC(C[C@]5(O)Cn6c(=O)ccc7ncc(F)c5c76)(CC3)OC4)nc2N1 | 32 (≈ 51 µM) | 32 (≈ 51 µM) | 32 (≈ 51 µM) | 32 (≈ 51 µM) | 32 (≈ 51 µM) | 32 (≈ 51 µM) | 32 (≈ 51 µM) | 8 (≈ 12.7 µM) | 32 (≈ 51 µM) | <4 | 30.5
O=C1COc2cnc(CNC34CCC(C[C@]5(O)Cn6c(=O)ccc7ncc(F)c5c76)(CC3)OC4)nc2N1 | 8 (≈ 15.7 µM) | – | 16 (≈ 31.5 µM) | 4 (≈ 7.87 µM) | 2 (≈ 3.93 µM) | – | 32 (≈ 62.9 µM) | 0.5 (≈ 0.983 µM) | 16 (≈ 31.5 µM) | <4 | 30
N#Cc1c(CNC23CCC(C[C@]4(O)Cn5c(=O)ccc6ncc(F)c4c65)(CC2)OC3)ncc2c1OCCO2 | 32 (≈ 61.6 µM) | 32 (≈ 61.6 µM) | 32 (≈ 61.6 µM) | 32 (≈ 61.6 µM) | 32 (≈ 61.6 µM) | 32 (≈ 61.6 µM) | 32 (≈ 61.6 µM) | 8 (≈ 15.4 µM) | 32 (≈ 61.6 µM) | – | –
O=c1ccc2ncc(F)c3c2n1C[C@@]3(O)CC12CCC(NCc3cc4c(cn3)OCCS4)(CC1)CO2 | 32 (≈ 62.7 µM) | 1 (≈ 1.96 µM) | 8 (≈ 15.7 µM) | 2 (≈ 3.92 µM) | 0.5 (≈ 0.979 µM) | 8 (≈ 15.7 µM) | 4 (≈ 7.83 µM) | 0.25 (≈ 0.49 µM) | 32 (≈ 62.7 µM) | – | –
O=c1ccc2ncc(F)c3c2n1C[C@@]3(O)CC12CCC(NCc3cc4c(cn3)SCCO4)(CC1)CO2 | 16 (≈ 31.3 µM) | 0.5 (≈ 0.979 µM) | 4 (≈ 7.83 µM) | 2 (≈ 3.92 µM) | 0.25 (≈ 0.49 µM) | 8 (≈ 15.7 µM) | 2 (≈ 3.92 µM) | 0.12 (≈ 0.235 µM) | 32 (≈ 62.7 µM) | – | –
O=c1ccc2ncc(F)c3c2n1C[C@@]3(O)CC12CCC(NCc3cc4c(nn3)OCCO4)(CC1)CO2 | 32 (≈ 64.6 µM) | 32 (≈ 64.6 µM) | 32 (≈ 64.6 µM) | 8 (≈ 16.1 µM) | 2 (≈ 4.04 µM) | 32 (≈ 64.6 µM) | 32 (≈ 64.6 µM) | 4 (≈ 8.07 µM) | 32 (≈ 64.6 µM) | – | –
O=c1ccc2ncc(F)c3c2n1C[C@@]3(O)CC12CCC(NCc3ncc4c(n3)OCCO4)(CC1)CO2 | 32 (≈ 64.6 µM) | 32 (≈ 64.6 µM) | 32 (≈ 64.6 µM) | 32 (≈ 64.6 µM) | 4 (≈ 8.07 µM) | 32 (≈ 64.6 µM) | 32 (≈ 64.6 µM) | 8 (≈ 16.1 µM) | 32 (≈ 64.6 µM) | – | –
O=c1ccc2ncc(F)c3c2n1C[C@@]3(O)CC12CCC(NCc3ccc4c(c3Cl)OCCO4)(CC1)CO2 | 32 (≈ 60.6 µM) | 32 (≈ 60.6 µM) | 32 (≈ 60.6 µM) | 8 (≈ 15.2 µM) | 1 (≈ 1.89 µM) | 32 (≈ 60.6 µM) | 32 (≈ 60.6 µM) | 1 (≈ 1.89 µM) | 32 (≈ 60.6 µM) | – | –
